This test has as its target T1, ATP phosphoribosyltransferase (Mycobacterium tuberculosis (strain ATCC 25618 / H37Rv), UniProt P9WMN1).
T1 sequence (P9WMN1 whole entry): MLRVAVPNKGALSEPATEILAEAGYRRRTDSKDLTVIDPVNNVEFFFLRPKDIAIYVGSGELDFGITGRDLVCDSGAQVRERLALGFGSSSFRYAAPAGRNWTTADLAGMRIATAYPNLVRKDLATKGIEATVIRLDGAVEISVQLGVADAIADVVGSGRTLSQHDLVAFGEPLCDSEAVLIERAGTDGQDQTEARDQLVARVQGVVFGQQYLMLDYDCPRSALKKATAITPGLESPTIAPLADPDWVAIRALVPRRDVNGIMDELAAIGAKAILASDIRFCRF
Put plainly: Enzyme Inhibition Assay. The note with it: pH 8.5; 22 °C. The method, then:
Inhibition activity was determined using an assay that followed the production of PR-ATP spectrophotometrically. Enzymatic reaction was initiated by adding the substrate PRPP to reaction mixtures containing HisG enzyme and test compounds, and absorbance of product was monitored at 290 nm for 5 min until it formed a plateau.

Each structure is given as a SMILES string.

For orientation: IC50 means the point on the concentration scale where inhibition reaches its midpoint. High values mean weaker potency in that assay, low ones greater potency in that assay.

The molecule `O=C(CSc1nnc(-c2ccccc2)c(-c2ccccc2)n1)Nc1nccs1` [2-[(5,6-diphenyl-1,2,4-triazin-3-yl)sulfanyl]-N-(1,3-thiazol-2-yl)acetamide] returned an IC50 of 4 µM.
`COc1ccc(COC(=O)C2=C(C)N=C3CC(c4cccs4)CC(=O)C3C2c2cccs2)cc1` (configuration not stated) [(4-methoxyphenyl)methyl 2-methyl-5-oxo-4,7-bis(thiophen-2-yl)-1,4,5,6,7,8-hexahydroquinoline-3-carboxylate] registered a concentration for half-maximal inhibition (IC50) of 10 µM. This IC50 is about 2.5-fold higher than that of the molecule before.
